Data on two molecules can be found in patent US8454934B2, “High molecular weight chelation structure” (Canadian Blood Services, priority 2006, dated 2013).

A short description of data set [1]: Solubility in water and plasma, by absorbance versus wavelength (FIG. 20A). Type of data set: physicochemical. The note with it: absorbance plots FIG. 20A, HMW-ICL-670 was 20% (by weight) ICL-670. As to the method: FIGS. 20A and 20B are plots of absorbance of radiation in water versus wavelength of the radiation, for low molecular weight ICL670 (3 mg/ml) and the chelation structure of the present invention (denoted as HMW) dissolved in the water, in accordance with embodiments of the present invention. […] The measured absorbance increases with increasing concentration of the chelators/chelation structures dissolved in the water and is thus a measure of the solubility of the chelators/chelation structures in the water.

For data set [2] the following is noted: upon intravascular administration; cellular uptake and kidney clearance; cited from earlier work.
In a further data set the test system is mice. The conditions noted are these: cited from earlier work.

Consider `O=C(O)c1ccc(-n2nc(-c3ccccc3O)nc2-c2ccccc2O)cc1` [ICL670, 4-[3,5-bis(2-hydroxyphenyl)-1,2,4-triazol-1-yl]-benzoic acid], for which the solubility in water entry in data set [1] is on record as “insoluble in water”.

Turning to `CC(=O)N(O)CCCCCNC(=O)CCC(=O)N(O)CCCCCNC(=O)CCC(=O)N(O)CCCCCN.CS(=O)(=O)O` [DFO, N-[5-(3-[(5-aminopentyl)-hydroxycarbamoyl]-propionamido)pentyl]-3-([5-(N-hydroxyacetamido)-pentyl]-carbamoyl)-propionohydroxamic acid monomethane sulphonate], in data set [2], the “time to complete clearance from the vasculature” value is on record as “approximately 20 minutes”. For the same molecule, the 50% lethal dose (LD50) (commonly the dose expected to kill half of the subjects tested) in the data set with mice is ~250 mg/kg.
